# Assay: Storage stability of the solid state form
# Assay type: physicochemical
# Experimental: Crystalline Form C2 of Zavegepant hydrochloride may have one or more advantageous properties, as discussed herein above. For example, Form C2 is stable for a period of at least for 6 months at temperature of about 25° C. and a relative humidity (“RH”) of 60% RH, and at a temperature of about 40° C. and 75% RH.
smiles,measurement,setting,value
"Cc1cc(C[C@@H](NC(=O)N2CCC(c3cc4ccccc4[nH]c3=O)CC2)C(=O)N2CCN(C3CCN(C)CC3)CC2)cc2cn[nH]c12 [Form C2, (R)N-(3-(7-methyl-1H-indazol-5-yl)-1-(4-(1-methylpiperidin-4-yl)piperazin-1-yl)-1-oxopropan-2-yl)-4-(2-oxo-1,2-dihydroquinolin-3-yl)piperidine-1-carboxamide]",period for which the form is stable,"temperature of about 25° C., 60% RH",≥ 6 months
same,period for which the form is stable,"temperature of about 40° C., 75% RH",≥ 6 months
